± gives the expanded uncertainty stated by the source.
How the values were obtained:
[1] = 100 kPa, Liquid; for speed of sound: Frequency=3 MHz, Single path-length method; for mass density: Vibrating tube method
[2] = xn = mol fraction of the nth substance listed; conditions: 100 kPa, Liquid, x1 = 1; for speed of sound: Frequency=3 MHz, Single path-length method; for mass density: Vibrating tube method

Row | Compound | speed of sound ([1]; 298.15 K) [m/s] | mass density ([1]; 298.15 K) [kg/m3] | speed of sound ([1]; 303.15 K) [m/s] | mass density ([1]; 303.15 K) [kg/m3] | speed of sound ([1]; 308.15 K) [m/s] | mass density ([1]; 308.15 K) [kg/m3] | speed of sound ([1]; 313.15 K) [m/s] | mass density ([1]; 313.15 K) [kg/m3] | speed of sound ([1]; 318.15 K) [m/s] | mass density ([1]; 318.15 K) [kg/m3] | speed of sound ([1]; 323.15 K) [m/s] | mass density ([1]; 323.15 K) [kg/m3] | speed of sound ([2]; 298.15 K) [m/s] | mass density ([2]; 298.15 K) [kg/m3] | speed of sound ([2]; 303.15 K) [m/s] | mass density ([2]; 303.15 K) [kg/m3] | speed of sound ([2]; 308.15 K) [m/s] | mass density ([2]; 308.15 K) [kg/m3] | speed of sound ([2]; 313.15 K) [m/s] | mass density ([2]; 313.15 K) [kg/m3] | also measured
1 | CC(O)CCO (centres undefined) [1,3-butanediol] | 1527.9 ± 1.4 | 1001.87 ± 2 | 1514 ± 1.4 | 998.41 ± 2 | 1500.1 ± 1.4 | 994.94 ± 2 | 1486.2 ± 1.4 | 991.49 ± 2 | 1472.3 ± 1.4 | 988.02 ± 2 | 1458.4 ± 1.4 | 984.56 ± 2 | – | – | – | – | – | – | – | – | –
2 | CCCC(=O)OCC [ethyl butanoate] + CC(O)CCO | – | – | – | – | – | – | – | – | – | – | – | – | 1171.8 ± 1 | 874.31 ± 2 | 1151.1 ± 1 | 868.85 ± 2 | 1130.2 ± 1 | 863.4 ± 2 | 1109 ± 1 | 857.94 ± 2 | speed of sound ([2]; 318.15 K): 1088 ± 1 m/s; mass density ([2]; 318.15 K): 852.49 ± 2 kg/m3; speed of sound ([2]; 323.15 K): 1067.1 ± 1 m/s; mass density ([2]; 323.15 K): 847.03 ± 2 kg/m3
3 | CCCC(=O)OCC [ethyl butanoate] + CCC(O)CO | – | – | – | – | – | – | – | – | – | – | – | – | 1171.8 ± 1 | 874.31 ± 2 | 1151.1 ± 1 | 868.85 ± 2 | 1130.2 ± 1 | 863.4 ± 2 | 1109 ± 1 | 857.94 ± 2 | speed of sound ([2]; 318.15 K): 1088 ± 1 m/s; mass density ([2]; 318.15 K): 852.49 ± 2 kg/m3; speed of sound ([2]; 323.15 K): 1067.1 ± 1 m/s; mass density ([2]; 323.15 K): 847.03 ± 2 kg/m3
4 | CCCC(=O)OCC [ethyl butanoate] + OCCCCO | – | – | – | – | – | – | – | – | – | – | – | – | 1171.8 ± 1 | 874.31 ± 2 | 1151.1 ± 1 | 868.85 ± 2 | 1130.2 ± 1 | 863.4 ± 2 | 1109 ± 1 | 857.94 ± 2 | speed of sound ([2]; 318.15 K): 1088 ± 1 m/s; mass density ([2]; 318.15 K): 852.49 ± 2 kg/m3; speed of sound ([2]; 323.15 K): 1067.1 ± 1 m/s; mass density ([2]; 323.15 K): 847.03 ± 2 kg/m3
5 | OCCCCO [1,4-butanediol] | 1601.9 ± 1.1 | 1012.8 ± 2 | 1590.3 ± 1.1 | 1009.77 ± 2 | 1578.6 ± 1.1 | 1006.74 ± 2 | 1567 ± 1.1 | 1003.7 ± 2 | 1555.3 ± 1.1 | 1000.67 ± 2 | 1543.7 ± 1.1 | 997.63 ± 2 | – | – | – | – | – | – | – | – | –
6 | CCC(O)CO (centres undefined) [1,2-butanediol] | 1452.5 ± 1.4 | 998.56 ± 2 | 1437.9 ± 1.4 | 994.75 ± 2 | 1423.3 ± 1.4 | 990.92 ± 2 | 1408.7 ± 1.4 | 987.11 ± 2 | 1394.1 ± 1.4 | 983.28 ± 2 | 1379.5 ± 1.4 | 979.46 ± 2 | – | – | – | – | – | – | – | – | –
7 | CCCC(=O)OCC [ethyl butanoate] | 1171.8 ± 1 | 874.31 ± 2 | 1151.1 ± 1 | 868.85 ± 2 | 1130.2 ± 1 | 863.4 ± 2 | 1109 ± 1 | 857.94 ± 2 | 1088 ± 1 | 852.49 ± 2 | 1067.1 ± 1 | 847.03 ± 2 | – | – | – | – | – | – | – | – | –

Reference: the NIST ThermoML archive (doi:10.1016/j.jct.2019.05.002)
